From paper PMC6943732, “The Disulfide Stress Response and Protein S-thioallylation Caused by Allicin and Diallyl Polysulfanes in Bacillus subtilis as Revealed by Transcriptomics and Proteomics” (Antioxidants, 2019)

What was measured:
Format in all cases: cell-based
[1] = molecular target: T1, MetE (Bacillus subtilis, UniProt P80877); assay: shotgun Orbitrap LC-MS/MS of S-thioallylated Cys peptides (+[…] Da); conditions: covalent, Cys719/Cys730
T1 construct: native, in treated cells, shotgun proteomics of tryptic peptides
T1 sequence (P80877 2-762): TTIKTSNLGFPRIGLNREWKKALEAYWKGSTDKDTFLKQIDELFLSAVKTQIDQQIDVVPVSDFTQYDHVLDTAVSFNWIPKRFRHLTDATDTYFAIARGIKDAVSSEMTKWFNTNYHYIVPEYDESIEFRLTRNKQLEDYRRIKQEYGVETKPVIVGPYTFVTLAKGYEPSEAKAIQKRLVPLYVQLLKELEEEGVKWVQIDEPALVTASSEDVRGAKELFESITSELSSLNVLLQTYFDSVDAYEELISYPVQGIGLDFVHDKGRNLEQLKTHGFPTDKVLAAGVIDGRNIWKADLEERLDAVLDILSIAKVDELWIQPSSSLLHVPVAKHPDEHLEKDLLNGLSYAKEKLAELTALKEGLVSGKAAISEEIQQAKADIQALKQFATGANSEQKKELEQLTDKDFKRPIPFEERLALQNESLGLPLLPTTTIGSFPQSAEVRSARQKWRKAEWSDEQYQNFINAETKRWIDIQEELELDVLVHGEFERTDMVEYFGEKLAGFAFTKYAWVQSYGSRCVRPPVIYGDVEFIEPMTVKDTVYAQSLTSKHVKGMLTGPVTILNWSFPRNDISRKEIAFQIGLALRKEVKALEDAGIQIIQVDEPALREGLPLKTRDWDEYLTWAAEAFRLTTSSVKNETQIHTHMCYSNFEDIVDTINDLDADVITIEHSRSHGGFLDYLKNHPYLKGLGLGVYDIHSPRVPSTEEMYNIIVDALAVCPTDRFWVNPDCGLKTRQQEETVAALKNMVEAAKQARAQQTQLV

[2] = molecular target: T2, TufA (EF-Tu) (Bacillus subtilis, UniProt P33166); assay: as above; conditions: covalent, Cys83
T2 construct: gene tuf; native, in treated cells, shotgun proteomics of tryptic peptides
T2 sequence (P33166 2-396): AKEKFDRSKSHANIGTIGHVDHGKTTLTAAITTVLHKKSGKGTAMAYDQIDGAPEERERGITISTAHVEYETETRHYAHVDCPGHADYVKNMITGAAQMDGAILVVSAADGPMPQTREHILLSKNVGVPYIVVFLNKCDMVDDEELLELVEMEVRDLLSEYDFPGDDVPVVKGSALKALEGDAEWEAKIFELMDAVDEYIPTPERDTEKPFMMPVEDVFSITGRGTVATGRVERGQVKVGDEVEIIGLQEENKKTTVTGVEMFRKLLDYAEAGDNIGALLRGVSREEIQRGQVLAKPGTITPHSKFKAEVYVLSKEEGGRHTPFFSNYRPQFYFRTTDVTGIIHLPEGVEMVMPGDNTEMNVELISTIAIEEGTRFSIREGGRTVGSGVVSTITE

[3] = molecular target: T3, FusA (EF-G) (Bacillus subtilis, UniProt P80868); assay: as above; conditions: covalent, Cys239
T3 construct: native, in treated cells, shotgun proteomics of tryptic peptides
T3 sequence (P80868 2-692): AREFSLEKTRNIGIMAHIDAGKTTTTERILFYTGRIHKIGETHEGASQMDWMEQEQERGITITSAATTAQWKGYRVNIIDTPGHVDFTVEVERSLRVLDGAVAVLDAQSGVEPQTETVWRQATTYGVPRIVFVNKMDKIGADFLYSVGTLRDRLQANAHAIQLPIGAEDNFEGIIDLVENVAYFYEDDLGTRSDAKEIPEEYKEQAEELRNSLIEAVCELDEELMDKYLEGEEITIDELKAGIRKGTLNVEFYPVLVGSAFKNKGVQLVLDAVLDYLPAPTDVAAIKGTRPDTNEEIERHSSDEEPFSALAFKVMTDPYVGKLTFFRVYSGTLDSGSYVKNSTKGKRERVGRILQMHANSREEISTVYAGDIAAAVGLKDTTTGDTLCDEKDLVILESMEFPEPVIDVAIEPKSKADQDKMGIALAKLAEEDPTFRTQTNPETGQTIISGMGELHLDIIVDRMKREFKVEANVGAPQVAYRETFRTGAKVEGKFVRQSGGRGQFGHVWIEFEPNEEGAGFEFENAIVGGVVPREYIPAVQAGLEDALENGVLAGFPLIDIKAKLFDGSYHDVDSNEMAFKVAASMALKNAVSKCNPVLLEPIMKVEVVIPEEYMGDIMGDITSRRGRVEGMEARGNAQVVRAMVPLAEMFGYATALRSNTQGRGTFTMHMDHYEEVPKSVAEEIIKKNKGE

[4] = molecular target: T4, YxjG (Bacillus subtilis, UniProt P42318); assay: as above; conditions: covalent, redox-sensitive Cys
T4 construct: native, in treated cells, shotgun proteomics of tryptic peptides
T4 sequence (P42318 1-378): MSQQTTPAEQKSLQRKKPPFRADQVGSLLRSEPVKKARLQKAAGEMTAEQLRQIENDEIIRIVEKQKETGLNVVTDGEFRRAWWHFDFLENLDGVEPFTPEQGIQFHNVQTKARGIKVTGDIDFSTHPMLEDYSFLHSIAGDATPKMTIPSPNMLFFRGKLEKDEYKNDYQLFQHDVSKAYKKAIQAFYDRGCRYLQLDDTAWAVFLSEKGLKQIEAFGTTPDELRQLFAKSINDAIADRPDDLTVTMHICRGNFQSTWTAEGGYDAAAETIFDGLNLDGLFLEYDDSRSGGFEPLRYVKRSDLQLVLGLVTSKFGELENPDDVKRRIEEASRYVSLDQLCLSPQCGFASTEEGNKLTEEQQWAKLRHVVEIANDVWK

[5] = molecular target: T5, SerA (Bacillus subtilis, UniProt P35136); assay: as above; conditions: covalent, redox-sensitive Cys
T5 construct: native, in treated cells, shotgun proteomics of tryptic peptides
T5 sequence (P35136 1-525): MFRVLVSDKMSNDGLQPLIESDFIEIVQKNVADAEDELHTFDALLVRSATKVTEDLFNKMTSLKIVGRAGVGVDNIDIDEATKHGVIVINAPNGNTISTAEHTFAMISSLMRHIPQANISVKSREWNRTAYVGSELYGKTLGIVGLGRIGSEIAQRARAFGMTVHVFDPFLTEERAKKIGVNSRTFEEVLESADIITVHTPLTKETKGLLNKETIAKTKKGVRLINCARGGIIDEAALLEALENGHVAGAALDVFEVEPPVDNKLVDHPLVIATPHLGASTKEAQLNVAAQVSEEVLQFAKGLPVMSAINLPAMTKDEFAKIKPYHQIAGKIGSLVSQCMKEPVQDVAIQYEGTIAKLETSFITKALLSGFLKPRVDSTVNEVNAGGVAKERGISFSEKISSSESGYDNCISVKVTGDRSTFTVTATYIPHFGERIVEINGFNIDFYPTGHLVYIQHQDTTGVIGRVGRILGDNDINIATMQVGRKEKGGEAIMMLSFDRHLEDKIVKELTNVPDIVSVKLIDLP

[6] = molecular target: T6, GlnA (Bacillus subtilis, UniProt P12425); assay: as above; conditions: covalent
T6 construct: native, in treated cells, shotgun proteomics of tryptic peptides
T6 sequence (P12425 2-444): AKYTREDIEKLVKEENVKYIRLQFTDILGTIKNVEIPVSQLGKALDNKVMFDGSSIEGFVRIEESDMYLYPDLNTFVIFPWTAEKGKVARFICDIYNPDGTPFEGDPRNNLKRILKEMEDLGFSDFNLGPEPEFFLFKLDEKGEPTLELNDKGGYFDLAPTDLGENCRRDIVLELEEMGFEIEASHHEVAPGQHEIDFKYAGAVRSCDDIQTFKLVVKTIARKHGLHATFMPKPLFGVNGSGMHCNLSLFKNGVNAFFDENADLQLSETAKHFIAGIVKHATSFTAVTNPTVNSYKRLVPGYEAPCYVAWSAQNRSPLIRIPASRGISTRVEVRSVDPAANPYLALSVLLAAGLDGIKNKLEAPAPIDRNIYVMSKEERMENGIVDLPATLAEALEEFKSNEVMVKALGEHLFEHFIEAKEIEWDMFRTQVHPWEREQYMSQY

[7] = molecular target: T7, GuaB (Bacillus subtilis, UniProt P21879); assay: as above; conditions: covalent, active site Cys308
T7 construct: native, in treated cells, shotgun proteomics of tryptic peptides
T7 sequence (P21879 whole entry): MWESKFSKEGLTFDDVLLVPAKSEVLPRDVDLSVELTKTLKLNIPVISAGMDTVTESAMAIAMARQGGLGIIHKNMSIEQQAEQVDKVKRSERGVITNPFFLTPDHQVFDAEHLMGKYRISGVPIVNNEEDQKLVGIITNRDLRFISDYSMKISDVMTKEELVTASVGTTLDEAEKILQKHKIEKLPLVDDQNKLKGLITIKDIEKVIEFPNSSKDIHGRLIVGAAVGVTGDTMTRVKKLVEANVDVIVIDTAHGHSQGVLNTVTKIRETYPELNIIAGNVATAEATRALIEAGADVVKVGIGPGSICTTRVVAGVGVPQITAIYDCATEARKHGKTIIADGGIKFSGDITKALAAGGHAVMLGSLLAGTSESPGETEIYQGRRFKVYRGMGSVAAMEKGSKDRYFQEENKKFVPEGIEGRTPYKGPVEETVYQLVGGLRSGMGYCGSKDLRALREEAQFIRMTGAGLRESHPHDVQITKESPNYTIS

[8] = molecular target: T8, PpaC (Bacillus subtilis, UniProt P37487); assay: as above; conditions: covalent, active site Cys158
T8 construct: native, in treated cells, shotgun proteomics of tryptic peptides
T8 sequence (P37487 whole entry): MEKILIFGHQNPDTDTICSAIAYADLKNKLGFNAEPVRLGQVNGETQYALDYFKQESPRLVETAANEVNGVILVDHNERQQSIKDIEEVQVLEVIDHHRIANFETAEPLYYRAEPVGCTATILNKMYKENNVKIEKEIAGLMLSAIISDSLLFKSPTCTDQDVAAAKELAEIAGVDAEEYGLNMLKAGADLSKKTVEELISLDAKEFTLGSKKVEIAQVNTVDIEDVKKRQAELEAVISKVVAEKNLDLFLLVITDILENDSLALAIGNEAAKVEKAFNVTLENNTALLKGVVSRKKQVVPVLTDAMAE

[9] = molecular target: T9, HypR (Bacillus subtilis, UniProt P37486); assay: IP and Orbitrap LC-MS/MS of S-thioallylated Cys peptides (+[…] Da); conditions: covalent; allicin-treated cells; Cys14
T9 construct: gene yybR; native, immunoprecipitated with polyclonal antibody from allicin-treated cells
T9 sequence (P37486 whole entry): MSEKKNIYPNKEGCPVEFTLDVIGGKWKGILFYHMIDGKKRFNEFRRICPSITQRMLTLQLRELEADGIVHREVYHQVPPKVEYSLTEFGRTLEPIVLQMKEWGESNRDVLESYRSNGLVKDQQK

[10] = molecular target: T10, OhrR-FLAG (Bacillus subtilis, UniProt O34777); assay: as above; conditions: covalent; cells treated with 90 µM allicin, 30 min; Cys15 (b28 names the redox-sensing residue Cys22)
T10 construct: FLAG-tagged, expressed in B. subtilis, immunoprecipitated from allicin-treated cells
T10 sequence (O34777 1-147): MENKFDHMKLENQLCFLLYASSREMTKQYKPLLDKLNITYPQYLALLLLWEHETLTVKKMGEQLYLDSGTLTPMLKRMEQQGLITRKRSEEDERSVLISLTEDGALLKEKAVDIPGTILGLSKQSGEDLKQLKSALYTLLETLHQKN

[11] = molecular target: T11, YodB (Bacillus subtilis, UniProt O34844); assay: as above; conditions: covalent; allicin-treated cells; Cys101 (Cys6 peptide not identified)
T11 construct: native, immunoprecipitated with polyclonal antibody from allicin-treated cells
T11 sequence (O34844 whole entry): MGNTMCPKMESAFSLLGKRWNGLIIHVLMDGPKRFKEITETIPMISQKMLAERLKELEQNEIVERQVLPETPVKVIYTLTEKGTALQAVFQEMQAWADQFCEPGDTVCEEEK

[12] = molecular target: T12, CatR (Bacillus subtilis, UniProt O32238); assay: as above; conditions: covalent; allicin-treated cells; Cys7
T12 construct: gene yvaP; native, immunoprecipitated with polyclonal antibody from allicin-treated cells
T12 sequence (O32238 1-108): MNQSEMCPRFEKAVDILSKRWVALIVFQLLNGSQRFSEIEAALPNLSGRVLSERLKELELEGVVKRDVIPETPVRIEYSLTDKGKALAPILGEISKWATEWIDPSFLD

[13] = cells treated with 92 µM DAS4, 30 min
[14] = cells treated with 90 µM allicin, 30 min

Structure (SMILES)	shotgun Orbitrap LC-MS/MS of S-thioallylated Cys peptides (+72 Da) [1, 13]	shotgun Orbitrap LC-MS/MS of S-thioallylated Cys peptides (+72 Da) [2, 13]	shotgun Orbitrap LC-MS/MS of S-thioallylated Cys peptides (+72 Da) [3, 13]	shotgun Orbitrap LC-MS/MS of S-thioallylated Cys peptides (+72 Da) [4, 13]	shotgun Orbitrap LC-MS/MS of S-thioallylated Cys peptides (+72 Da) [5, 13]	shotgun Orbitrap LC-MS/MS of S-thioallylated Cys peptides (+72 Da) [6, 13]	shotgun Orbitrap LC-MS/MS of S-thioallylated Cys peptides (+72 Da) [7, 13]	shotgun Orbitrap LC-MS/MS of S-thioallylated Cys peptides (+72 Da) [8, 13]	shotgun Orbitrap LC-MS/MS of S-thioallylated Cys peptides (+72 Da) [1, 14]	shotgun Orbitrap LC-MS/MS of S-thioallylated Cys peptides (+72 Da) [2, 14]	IP and Orbitrap LC-MS/MS of S-thioallylated Cys peptides (+72 Da) [9]	shotgun Orbitrap LC-MS/MS of S-thioallylated Cys peptides (+72 Da) [3, 14]	shotgun Orbitrap LC-MS/MS of S-thioallylated Cys peptides (+72 Da) [4, 14]	shotgun Orbitrap LC-MS/MS of S-thioallylated Cys peptides (+72 Da) [5, 14]	shotgun Orbitrap LC-MS/MS of S-thioallylated Cys peptides (+72 Da) ([6]; cells treated with 90 µM allicin, 30 min, conserved Cys)	IP and Orbitrap LC-MS/MS of S-thioallylated Cys peptides (+72 Da) [10]	shotgun Orbitrap LC-MS/MS of S-thioallylated Cys peptides (+72 Da) [7, 14]	IP and Orbitrap LC-MS/MS of S-thioallylated Cys peptides (+72 Da) [11]	IP and Orbitrap LC-MS/MS of S-thioallylated Cys peptides (+72 Da) [12]	shotgun Orbitrap LC-MS/MS of S-thioallylated Cys peptides (+72 Da) [8, 14]
C=CCSSSSCC=C [DAS4]	Cys239 of FusA, and Cys719/Cys730 of MetE	modified at their conserved Cys residues, e.g., Cys83 of TufA	Cys83 of TufA, Cys239 of FusA	TufA, MetE, YxjG, GuaB, SerA, and PpaC were modified at their redox-sensitive Cys residues	SerA, and PpaC were modified at their redox-sensitive Cys residues by allicin and DAS4	MetE, YxjG, MetI, AroA, ArgJ, CarB, GlnA	GuaB and PpaC were S-thioallylated at their conserved redox-sensing active sites Cys308 and Cys158	pyrophosphatase PpaC were S-thioallylated by allicin and DAS4 in B. subtilis	–	–	–	–	–	–	–	–	–	–	–	–
C=CCS[S+]([O-])CC=C (centres unmarked) [allicin]	–	–	–	–	–	–	–	–	Cys239 of FusA, and Cys719/Cys730 of MetE	modified at their conserved Cys residues, e.g., Cys83 of TufA	modified by S-thioallylation for OhrR (Cys15), HypR (Cys14), and CatR (Cys7)	Cys83 of TufA, Cys239 of FusA	TufA, MetE, YxjG, GuaB, SerA, and PpaC were modified at their redox-sensitive Cys residues	SerA, and PpaC were modified at their redox-sensitive Cys residues by allicin and DAS4	MetE, YxjG, MetI, AroA, ArgJ, CarB, GlnA	modified by S-thioallylation for OhrR (Cys15), HypR (Cys14), and CatR (Cys7)	GuaB and PpaC were S-thioallylated at their conserved redox-sensing active sites Cys308 and Cys158	For the YodB-repressor, only Cys101 was S-thioallylated	modified by S-thioallylation for OhrR (Cys15), HypR (Cys14), and CatR (Cys7)	pyrophosphatase PpaC were S-thioallylated by allicin and DAS4 in B. subtilis
